Experimental findings from ChEMBL document CHEMBL1201862, “PubChem BioAssay data set” (2004) are described below.

Test systems include Malme-3M; OVCAR-8; HT-29; SF-268; CAKI-1; OVCAR-3; SF-295; MDA-N; A549; OVCAR-5; RPMI-8226; 786-0; RXF 393; BT-549; DU-145; MDA-MB-231; UACC-62; ACHN; SNB-19; U-251.
Holding throughout (experiment): growth of human tumour cells (NCI), 48 h

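Method: 48-hour compound exposure of cells in 96-well plates, five concentrations, linear interpolation of endpoints. Abbreviation: GI50, concentration required for 50% inhibition of growth.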 The source made the active and inactive calls. Cut-off read from the data, not from the text of the source: active = GI50 up to about 1.1 µM and inactive = higher. Where only a bound is given, the exact number is not on record here.

Consider `CC/C(=C\c1ccc(OC)cc1)c1ccc(OC)cc1`, for which the GI50 in the test with Malme-3M is 50.7 µM (inactive); in the test with OVCAR-8 it was > 100 µM (inactive); in the test with HT-29, 37.5 µM (inactive); in the test with SF-268, > 100 µM (inactive); in the test on CAKI-1, > 100 µM (inactive); with OVCAR-3, > 100 µM (inactive). For the same compound, the GI50 in the test on SF-295 was 53.3 µM (inactive); with MDA-N it was > 100 µM (inactive); with A549, > 100 µM (inactive); in the test on OVCAR-5, 66.7 µM (inactive); in the test on RPMI-8226, 86.3 µM (inactive); with 786-0, 94.2 µM (inactive). In addition, the GI50 is 60.8 µM (inactive) in the test on RXF 393; 75.3 µM (inactive) with BT-549; > 100 µM (inactive) in the test on DU-145; > 100 µM (inactive) in the test on MDA-MB-231; > 100 µM (inactive) in the test on UACC-62; > 100 µM (inactive) in the test on ACHN. The GI50 in the test on SNB-19 and with U-251 was > 100 µM (inactive) in each case.
With `CCOc1ccccc1/C=C(/C#N)C(N)=O`, the GI50 with Malme-3M, in the test on OVCAR-8, in the test with HT-29, in the test with SF-268, in the test with CAKI-1 and in the test with OVCAR-3 was > 100 µM (inactive) throughout. Moreover, the GI50 in the test on SF-295 is > 100 µM (inactive); with MDA-N, 18.7 µM (inactive); in the test with A549, > 100 µM (inactive); with OVCAR-5, > 100 µM (inactive); in the test on RPMI-8226, > 100 µM (inactive); in the test on 786-0 it was > 100 µM (inactive). Further, the GI50 with RXF 393 was > 100 µM (inactive); in the test with BT-549, > 100 µM (inactive); in the test on DU-145 it was > 100 µM (inactive); in the test with MDA-MB-231 it was > 100 µM (inactive); in the test with UACC-62 it was 96.2 µM (inactive); with ACHN it was > 100 µM (inactive). For the same compound, the GI50 with SNB-19 and with U-251 was > 100 µM (inactive) each time.
Regarding `CCC1=C(CC2NCCc3cc(OC)c(OC)cc32)CC2c3ccccc3CCN2C1` (stereo not given), the GI50 in the test on Malme-3M is 14.6 µM (inactive); with OVCAR-8, 37.5 µM (inactive); in the test with HT-29, 5.56 µM (inactive); with SF-268, 31.5 µM (inactive); in the test with CAKI-1 it was 22.4 µM (inactive); with OVCAR-3, 33.4 µM (inactive). Besides, the GI50 is 20.4 µM (inactive) in the test on SF-295; 14 µM (inactive) in the test on MDA-N; 26.4 µM (inactive) in the test on A549; 12.4 µM (inactive) in the test on OVCAR-5; 13.8 µM (inactive) with RPMI-8226; 14 µM (inactive) with 786-0. The GI50 in the test on RXF 393 is 19.8 µM (inactive); with BT-549, 49.4 µM (inactive); in the test on DU-145, 38.5 µM (inactive); with MDA-MB-231 it was 16.8 µM (inactive); in the test on UACC-62 it was 15.5 µM (inactive); in the test with ACHN, 31.5 µM (inactive). In addition, the GI50 is 36.9 µM (inactive) with SNB-19 and 13.7 µM (inactive) with U-251.
With `C/C=N\n1c(C)c(C#N)c(C#N)c1N`, the GI50 with Malme-3M, in the test with OVCAR-8, in the test with HT-29, with SF-268, in the test with CAKI-1 and in the test on OVCAR-3 was > 100 µM (inactive) each time. The GI50 in the test with SF-295 is > 100 µM (inactive); in the test on MDA-N, > 100 µM (inactive); in the test with A549, 34.5 µM (inactive); in the test with OVCAR-5, > 100 µM (inactive); in the test on RPMI-8226, > 100 µM (inactive); in the test with 786-0, > 100 µM (inactive). For the same compound, the GI50 in the test with RXF 393, in the test on BT-549, in the test with DU-145, in the test with MDA-MB-231, in the test with UACC-62 and with ACHN was > 100 µM (inactive) throughout. The GI50 with SNB-19 and in the test on U-251 was > 100 µM (inactive) throughout.
For the compound `O=S(=O)(CC(O)C(Cl)(Cl)Cl)NNc1ccccc1` (stereo not given), the GI50 in the test with Malme-3M, in the test on OVCAR-8, with HT-29, in the test with SF-268, in the test with CAKI-1 and with OVCAR-3 was > 100 µM (inactive) in each case. Also, the GI50 is 80.7 µM (inactive) with SF-295; > 100 µM (inactive) in the test with MDA-N; > 100 µM (inactive) in the test on A549; > 100 µM (inactive) in the test on OVCAR-5; > 100 µM (inactive) in the test with RPMI-8226; > 100 µM (inactive) in the test on 786-0. Also, the GI50 is > 100 µM (inactive) in the test with RXF 393; > 100 µM (inactive) in the test on BT-549; > 100 µM (inactive) in the test with DU-145; > 100 µM (inactive) in the test with MDA-MB-231; 20.7 µM (inactive) in the test with UACC-62; > 100 µM (inactive) with ACHN. Besides, the GI50 in the test with SNB-19 and in the test with U-251 was > 100 µM (inactive) throughout.
Take `COc1cc2c(c(OC)c1OC)-c1ccc(SC)c(=O)cc1[C@@H](OC(=O)c1ccncc1)CC2`: the GI50 in the test on Malme-3M, in the test with OVCAR-8, in the test on HT-29, in the test with SF-268, in the test with CAKI-1 and in the test on OVCAR-3 was < 0.01 µM (active) each time. Further, the GI50 in the test on SF-295, with MDA-N, with A549, in the test with OVCAR-5, in the test with RPMI-8226 and in the test on 786-0 was < 0.01 µM (active) throughout. Moreover, the GI50 in the test on RXF 393 was 7.78 µM (inactive); in the test on BT-549 it was < 0.01 µM (active); in the test with DU-145, < 0.01 µM (active); in the test on MDA-MB-231 it was < 0.01 µM (active); in the test with UACC-62, < 0.01 µM (active); in the test with ACHN, < 0.01 µM (active). For the same compound, the GI50 with SNB-19 and with U-251 was < 0.01 µM (active) in each case.
For `O=C(CCBr)N1CCN(C(=O)CCBr)CC1` [PIPOBROMAN], the GI50 in the test on Malme-3M was 101 µM (inactive); in the test on OVCAR-8, 86.3 µM (inactive); in the test on HT-29 it was 103 µM (inactive); in the test with SF-268, 39.3 µM (inactive); in the test with CAKI-1 it was 47.9 µM (inactive); in the test on OVCAR-3, 96.6 µM (inactive). Moreover, the GI50 in the test on SF-295 was 57.3 µM (inactive); in the test with MDA-N, 89.9 µM (inactive); in the test with A549, 43.9 µM (inactive); in the test with OVCAR-5 it was 103 µM (inactive); with RPMI-8226, 98.4 µM (inactive); in the test on 786-0, 57.9 µM (inactive). For the same compound, the GI50 was 68.2 µM (inactive) in the test on RXF 393; 61.8 µM (inactive) in the test on BT-549; 64.6 µM (inactive) in the test with DU-145; 113 µM (inactive) with MDA-MB-231; 18 µM (inactive) in the test with UACC-62; 29 µM (inactive) in the test on ACHN. Besides, the GI50 is 80.2 µM (inactive) with SNB-19 and 55 µM (inactive) with U-251.
